Laboratory results: patent US4891432A, “Phenoxy imidazole compound” (Yamanouchi Pharmaceutical Co., Ltd., priority 1986, dated 1990)
Like-named read-outs stand apart in the source and are kept apart here.

Assays:
Ehrlich solid tumor [1] = assay: Test 5: Antitumor test against Ehrlich solid tumor; type: in vivo, ddY/SLC mice; conditions: intraperitoneal (1 to 9 days), day 21
Description: Antitumor test against Ehrlich solid tumor
Ehrlich tumor cells, 3×10^6, on Day 6 after intraperitoneal transplantation to ddY/SLC mice, were subcutaneously transplanted in the left abdomen of ddY/SLC mice (5 week age, male)--10 mice to a group (37 mice for the control group). The active component was intraperitoneally administered in a definite dose 24 hours after the transplantation, according to the scheduled shown in Table 4. The tumor growth inhibition was assessed by measuring the weight of each tumor on the 21th day after transplantation, and determining the tumor growth inhibition rate of the active component-administered group to the control group, according to the following equation.
(§1) Growth inhibition rate (%)=(C-T)/C×100
(§2) T: mean tumor weight in the active-component-administered group
(§3) C: mean tumor weight on the control group

Ehrlich solid tumor [2] = assay: Test 2: Anti-tumor test against Ehrlich solid tumor; type: in vivo, ddY/SLC mice; conditions: Mus musculus, Ehrlich, ip, 504 h, read-out: Growth Inhibition Rate
Description: Anti-tumor test against Ehrlich solid tumor
Ehrlich tumor cells, 2×10^6, on Day 7 after intraperitoneal transplantation to ddY/SLC mice, were subcutaneously transplanted in the left abdomen of ddY/SLC mice (5week age, male)--10 to a group. The active component was intraperitoneally administered in a definite dose 24 hours after the transplantation. (administration: once per one day; 1 through 9 days)
as §1
T: mean tumor weight in the active component-administered group
c: mean tumor weight in the control group

[3] = test system: mouse leukemia L1210 cells; assay: Effectiveness against mouse leukemia L1210 cells (in vitro test), cytotoxicity by trypan blue dye exclusion; type: cell-based; conditions: Mus musculus, read-out: IC50 (mean dose producing 50%-killing of tumor cells)
Description: Effectiveness against mouse leukemia L1210 cells (in vitro test)
A suspension of cells in culture medium was transferred into wells in a microplate in an amount of 1×10^5 L1210-cells/well. Test sample diluted with a culture medium was added to the suspension in each well, and the mixture was incubated on the medium at 37° C. for 3 days in an atmosphere of air containing 5% carbon dioxide.
Thereafter, the incubated cells were recovered from the microplate and the number of live cells was counted by the dye exclusion test using a 0.5% solution of trypan blue and by using a hemocytometer.

ddY mice = assay: Toxicity test (acute toxicity); type: in vivo; conditions: intraperitoneal, up to a dose of 800 mg/kg
Description: (§4) The active component (the Compound of Example 45) was orally administered to ddY mice (mean body weight of 30 g, male). […] Accordingly, the acute toxicity of the Compound is greater than 1,600 mg/kg (oral administration).
(§5) Accordingly, the acute toxicity of the Compound in the case of intraperitoneal administration is greater than 800 mg/kg.

[4] = Toxicity test (acute toxicity); type: in vivo; conditions: mouse, in vivo, male ddY mice
Description: as §4, §5

mouse M5076 solid tumor = assay: Test 4: Anti-tumor test against mouse M5076 solid tumor; type: in vivo, BDF1/SLC mice; conditions: p.o. (1-9 days), day 14
Description: Anti-tumor test against mouse M5076 solid tumor
M5076 Tumor cells, 1×10^6, on day 14 after intraperitoneal transplantation to C57BL16/cRJ mice, were subcutaneously transplanted to the left abdomen of BDF1/SLC mice (8 week age, male)--10 mice to a group (20 mice for the control group). The active component was orally administered in a definite dose 24 hours after the transplantation according to the schedule shown in Table 3. The tumor growth inhibition was assessed by measuring the weight of each tumor on days 14 after the transplantation, and determining the tumor growth inhibition rate of the active component-administered group to the control group, according to the following equation.
as §1, §2, §3

[5] = test system: mouse mammalian MM-46 tumor; assay: Test 3: Test against mouse mammalian MM-46 tumor; type: in vivo, C3H/He/SLC mice
Description: Test against mouse mammalian MM-46 tumor
MM-46 tumor cells, 1×10^6, on day 6 after intraperitonal transplantation to C3 H/He/SLC mice, were intraperitoneally transplanted to C3H/He/SlC mice (6 week age, male)--10 mice to a group. The active component was orally administered in a definite dose 24 hours after the transplantation according to the schedule shown in Table 2. The tumor growth inhibition was evaluated as the percentage of the median survival day of the administered group versus that of the control group, according to the following equation.
T: median survival day of the administered group
C: median survival day of the control group

O=c1[nH]cc(F)c(=O)[nH]1 [5-Fluorouracil, reference compound]
Growth Inhibition Rate (Ehrlich solid tumor [1]; 12.5 mg/kg): 36.4% | Weight of Tumor (Ehrlich solid tumor [1]; 12.5 mg/kg): 2.55 ± 1.21 g | Growth Inhibition Rate (Ehrlich solid tumor [1]; 25 mg/kg): 45.6% | Weight of Tumor (Ehrlich solid tumor [1]; 25 mg/kg): 2.18 ± 0.96 g | inhibition in vivo at 25 mg/kg (Ehrlich solid tumor [2]): 61% | IC50 ([3]; L1210, 72 h): 0.41 µM

CC(C)(CCCCOc1ccc(OCCCCCn2ccnc2)cc1)C(=O)O [Example 45, 6-[p-[5-(1-imidazolyl)pentyloxy]phenoxy]-2,2-dimethylhexanoic acid]
Growth Inhibition Rate (Ehrlich solid tumor [1]; 50 mg/kg): 29.9% | Weight of Tumor (Ehrlich solid tumor [1]; 50 mg/kg): 2.81 ± 1.55 g | Growth Inhibition Rate (Ehrlich solid tumor [1]; 100 mg/kg): 49.1% | Weight of Tumor (Ehrlich solid tumor [1]; 100 mg/kg): 2.04 ± 1.26 g | Growth Inhibition Rate (Ehrlich solid tumor [1]; 200 mg/kg): 63.6% | Weight of Tumor (Ehrlich solid tumor [1]; 200 mg/kg): 1.46 ± 0.50 g | Growth Inhibition Rate (Ehrlich solid tumor [1]; 400 mg/kg): 57.6% | Weight of Tumor (Ehrlich solid tumor [1]; 400 mg/kg): 1.70 ± 0.60 g | IC50 ([3]; 72 h, L1210 cells, 3 days, 37° C.): 42.5 µM | death (ddY mice): no example of death was noted | LD50 ([4]; ip, intraperitoneal administration): > 800 mg/kg | LD50 ([4]; oral administration): > 1600 mg/kg | Growth Inhibition Rate (mouse M5076 solid tumor; 100 mg/kg): 13.1% | Weight of Tumor (mouse M5076 solid tumor; 100 mg/kg): 0.53 ± 0.09 g | Growth Inhibition Rate (mouse M5076 solid tumor; 200 mg/kg): 19.7% | Weight of Tumor (mouse M5076 solid tumor; 200 mg/kg): 0.49 ± 0.14 g | Growth Inhibition Rate (mouse M5076 solid tumor; 400 mg/kg): 11.5% | Weight of Tumor (mouse M5076 solid tumor; 400 mg/kg): 0.54 ± 0.12 g | Growth Inhibition Rate (mouse M5076 solid tumor; 800 mg/kg): 23.0% | Weight of Tumor (mouse M5076 solid tumor; 800 mg/kg): 0.47 ± 0.09 g | Median Survival Day ([5]; 100 mg/kg, p.o. (1-6 days)): 8.0 days | No. of 20-day Survivors ([5]; 100 mg/kg, p.o. (1-6 days)): 0/10 | T/C (median survival) ([5]; 100 mg/kg, p.o. (1-6 days)): 114.3% | Median Survival Day ([5]; 200 mg/kg, p.o. (1-6 days)): 8.0 days | No. of 20-day Survivors ([5]; 200 mg/kg, p.o. (1-6 days)): 0/10 | T/C (median survival) ([5]; 200 mg/kg, p.o. (1-6 days)): 114.3% | Median Survival Day ([5]; 400 mg/kg, p.o. (1-6 days)): 8.0 days | No. of 20-day Survivors ([5]; 400 mg/kg, p.o. (1-6 days)): 0/10 | T/C (median survival) ([5]; 400 mg/kg, p.o. (1-6 days)): 114.3% | Median Survival Day ([5]; 800 mg/kg, p.o. (1-8 days)): 10.0 days | No. of 20-day Survivors ([5]; 800 mg/kg, p.o. (1-8 days)): 0/10 | T/C (median survival) ([5]; 800 mg/kg, p.o. (1-8 days)): 142.9%

O=c1[nH]c(=O)n(C2CCCO2)cc1F (stereo not drawn) [Tetrahydrofuryl-5-fluorouracil, reference compound]
Growth Inhibition Rate (mouse M5076 solid tumor; 100 mg/kg): 14.8% | Weight of Tumor (mouse M5076 solid tumor; 100 mg/kg): 0.52 ± 0.19 g | Growth Inhibition Rate (mouse M5076 solid tumor; 200 mg/kg): 39.3% | Weight of Tumor (mouse M5076 solid tumor; 200 mg/kg): 0.37 ± 0.08 g | Median Survival Day ([5]; 100 mg/kg, p.o. (1-6 days)): 6.0 days | No. of 20-day Survivors ([5]; 100 mg/kg, p.o. (1-6 days)): 0/10 | T/C (median survival) ([5]; 100 mg/kg, p.o. (1-6 days)): 85.7% | Median Survival Day ([5]; 200 mg/kg, p.o. (1-6 days)): 7.0 days | No. of 20-day Survivors ([5]; 200 mg/kg, p.o. (1-6 days)): 0/10 | T/C (median survival) ([5]; 200 mg/kg, p.o. (1-6 days)): 100%
